Reference: US20220105183A1, “MICRO-NANO STRUCTURE FORMED BY SELF-ASSEMBLING ORGANIC SMALL MOLECULE COMPOUND AND USE THEREOF” (Qingdao University of Science and Technology, priority 2018, published 2022)

Key:
[1] = test system: HeLa cells; assay: Cell photothermal experiment; format: cell-based
Experimental: HeLa cells were digested from the culture flask with trypsin, centrifuged, added to a DMEM medium containing 10% serum and 1% double antibody, and mixed well. 20 μL of cells were taken and stained with Compound II-1 (20 μM) for 30 minutes. After taking it out, it was centrifuged and rinsed twice with PBS. After centrifuging, 20 μL of culture medium and 20 μL of trypan blue were added. 20 μL was taken from the mixture to the cell count plate and photographed under fluorescence microscope. In the absence of laser irradiation, bright live cells were observed under the microscope, and the cell survival rate was 92%. When irradiated with 808 nm laser for 6 minutes, almost all the blue dead cells were observed under the microscope, and the cell death rate was as high as 100%. HeLa cells were cultured in 96-well plates, 10^4 cells per well, and live/dead staining after 24 h. The cells were irradiated with an 808 nm laser for 6 minutes, and the photographs were observed under a fluorescent microscope. […] It can be seen that the toxicity of the compound itself is extremely small, but its photothermal effect is particularly lethal to cancer cells, and it has bright prospects in the future clinical application of photothermal treatment of cancer. Other compounds of the present invention also have similar photothermal therapeutic effects.

[2] = TEM, cryo-TEM and AFM of the self-assembled micro-nano structure; format: physicochemical
Experimental: Taking the self-assembled micro-nano structure of Compound II-1 as an example, II-1 was dissolved in DMSO (also can be an organic solvent such as ethanol) to prepare a 2 mM storage solution, and a small amount of storage solution was added to deionized water to prepare 20 μM working solution. Took 10 μL and dropped it on copper mesh, observed and analyzed under transmission electron microscope (TEM), cryo-transmission electron microscope. Took 10 μL and dropped it on mica plate, observed and analyzed under atomic force microscope (AFM). In FIGS. 5, A, B, C and D were TEM photographs, cryo-transmission electron microscope photographs, AFM photographs, and AFM analysis data, respectively. According to the photographs and data, II-1 was self-assembled into nanosheets with a diameter of 40-70 nm and a thickness of 3.7-3.9 nm. […]

[3] = Photodynamic effect test with carboxy-H2DCFDA; settings: 10 μM in water with 25 μM carboxy-H2DCFDA, 808 nm laser 10 minutes
Experimental: The control group only added carboxy-H2DCFDA compound. Irradiated with 808 nm laser for 10 minutes, and the sample was lowered to room temperature, and its fluorescence emission spectrum (Ex=495 nm, Em=530 nm) was tested. […] It has been verified that other compounds of the present invention have no similar photodynamic effect.

[4] = test system: 4T1 cells; assay: Fluorescence imaging in subcutaneous metastasis model mice; format: in vivo, nude mice; settings: 200 μL (1 mg/mL) tail vein
Experimental: The left side of 6-week-old female nude mice was injected subcutaneously with […] 4T1 cells to grow the tumor volume to 60 mm^3.
In the experimental group, 200 μL of II-1 (1 mg/mL) was injected into the tail vein of mice. After injection, the living imager was used to monitor at different times. […] Then they were dissected, and the heart, liver, spleen, lung, kidney and tumor were imaged by fluorescence. […] This proves that Compound II-1 targets the tumor site very well.

[5] = test system: T4 cells; assay: Fluorescence imaging and photothermal treatment in sentinel lymphatic metastasis model mice; format: in vivo; settings: for tumor metastasis in the lungs, ink staining: day 20; for temperature at sentinel lymph nodes under laser: 808 nm laser (1.5 W/cm2) 10 minutes
Experimental: (§1) Cell preparation: The cells in the culture flask were digested with trypsin and placed in a centrifuge tube for use. The supernatant was discarded by centrifugation and counted. Then a large amount of medium was added and it was placed in a foam box to be taken to the company. The supernatant was removed by centrifugation, and about 3.5 mL of serum-free medium was added. It was prepared for injection.
(§2) After that, small animal fluorescence imaging and photothermal therapy can be performed.
(§3) Fluorescence imaging for the small animal was performed on the established mouse metastasis model. Using tail vein injection and intratumoral injection (FIG. 22), fluorescence detection was performed every 1 hour for a total of 5 hours.
(§4) The mice were treated with photothermal therapy after injection of tumor cells on the right hind foot pad with obvious sentinel lymph nodes (about 20 days). In this experiment, mice were randomly divided into 3 groups, each group 5 mice, saline+laser irradiation control group, intratumoral injection+laser irradiation experimental group and tail vein injection+laser irradiation experimental group, respectively.
(§5) After photothermal treatment of the mice, the mice were photographed and their weights were recorded every 5 days. […] After the mice were stained with ink on the lungs on day 20, the lungs of the mice were photographed.

[6] = as above; format: in vivo
Experimental: as §1, §2, §3, §4, §5

[7] = UV absorption, fluorescence emission and quantum yield in solutions of different polarities; format: physicochemical
Experimental: The Compound II-1 of the present invention was prepared as a 2 mM storage solution in DMSO, and then 10 μL was added to 2 mL of solutions with different polarities (including water, dimethyl sulfoxide, N,N-dimethylformamide, methanol, ethanol, acetone, methylene chloride, acetonitrile), a UV spectrophotometer was used to test the UV absorption and to find the maximum absorption wavelength. The molar extinction coefficient of II-1 in solutions of different polarities was calculated from the ultraviolet absorption spectrum. Excited by the maximum absorption wavelength, the fluorescence emission spectrum was tested by a fluorescence spectrometer, the data was plotted with origin and the integral area was calculated. The fluorescence quantum yield φx, φx=φs(Fx/Fs)(As/Ax)(λexs/λexx)(nx/ns)^2, was calculated from the obtained data to obtain the characteristic parameters of Compound II-1 in solutions of different polarities (Table 3).

[8] = 20 μM in deionized water, TEM/AFM

CCN1C(=CC=C2CCCC(C=CC3=C(C#N)C(=C(C#N)C#N)OC3(C)C)=C2Cl)C(C)(C)c2ccccc21 [II-1]
dead cells, live/dead staining ([1]; HeLa in 96-well plates, 808 nm laser 6 minutes): 100%
live/dead staining, compound only ([1]; HeLa in 96-well plates, only the compound added, without laser irradiation): the cells were all alive
cell death rate ([1]; HeLa, 20 μM for 30 minutes, 808 nm laser 6 minutes, trypan blue): 100%
cell survival rate ([1]; HeLa, 20 μM for 30 minutes, no laser irradiation, trypan blue): 92%
nanosheet diameter [2, 8]: 40-70 nm
nanosheet thickness [2, 8]: 3.7-3.9 nm
Morphology ([2]; micro-nano structure in aqueous solution, AFM and TEM): nano-sheet
production of reactive oxygen radicals (photodynamic effect) [3]: does not produce reactive oxygen radicals (ROS)
whole-body fluorescence distribution ([4]; after 24 hours): all enriched in the tumor site
fluorescence of dissected heart, liver, spleen, lung, kidney and tumor ([4]; dissected after 24 hours): the fluorescence was very strong at tumor site, with weak fluorescence in the liver, and no fluorescence in other parts
abnormalities in nude mice ([4]; within 24 hours): no abnormalities such as spasms and convulsions occurred
scars at the sentinel lymph nodes over time ([5]; intratumoral injection + laser): obviously healed
tumor metastasis in the lungs, ink staining ([5]; intratumoral injection + laser): no obvious tumor metastasis
temperature at sentinel lymph nodes under laser ([5]; intratumoral injection): significantly higher than that in the saline injection group
entry into the sentinel lymph node, fluorescence ([5]; intratumoral injection, detection every 1 hour for 5 hours): can obviously enter the sentinel lymph node of mice
day on which mice died (first) ([5]; tail vein injection + laser): 15 days
scars at the sentinel lymph nodes over time ([5]; tail vein injection + laser): showed a tendency to heal
tumor metastasis in the lungs, ink staining ([5]; tail vein injection + laser): obvious tumor metastasis
temperature at sentinel lymph nodes under laser ([5]; tail vein injection): significantly higher than that in the saline injection group
body weight ([6]; intratumoral injection + laser): stable in a healthy state
body weight ([6]; tail vein injection + laser): decreased on the tenth day
Φ (fluorescence quantum yield) ([7]; N,N-dimethylformamide): 0.19%
ε*10^4 ([7]; N,N-dimethylformamide): 7.92 M^−1cm^−1
λem ([7]; N,N-dimethylformamide): 853 nm
λmax ([7]; N,N-dimethylformamide): 844 nm
Φ (fluorescence quantum yield) ([7]; acetone): 0.29%
ε*10^4 ([7]; acetone): 8.91 M^−1cm^−1
λem ([7]; acetone): 851 nm
λmax ([7]; acetone): 832 nm
Φ (fluorescence quantum yield) ([7]; acetonitrile): 0.35%
ε*10^4 ([7]; acetonitrile): 9.15 M^−1cm^−1
λem ([7]; acetonitrile): 850 nm
λmax ([7]; acetonitrile): 832 nm
Φ (fluorescence quantum yield) ([7]; dichloromethane): 0.35%
ε*10^4 ([7]; dichloromethane): 8.55 M^−1cm^−1
λem ([7]; dichloromethane): 850 nm
λmax ([7]; dichloromethane): 834 nm
Φ (fluorescence quantum yield) ([7]; dimethyl sulfoxide): 0.12%
ε*10^4 ([7]; dimethyl sulfoxide): 10.24 M^−1cm^−1
λem ([7]; dimethyl sulfoxide): 854 nm
λmax ([7]; dimethyl sulfoxide): 848 nm
Φ (fluorescence quantum yield) ([7]; ethanol): 0.25%
ε*10^4 ([7]; ethanol): 10.74 M^−1cm^−1
λem ([7]; ethanol): 851 nm
λmax ([7]; ethanol): 828 nm
Φ (fluorescence quantum yield) ([7]; methanol): 0.19%
ε*10^4 ([7]; methanol): 11.24 M^−1cm^−1
λem ([7]; methanol): 850 nm
λmax ([7]; methanol): 830 nm
Φ (fluorescence quantum yield) ([7]; water): 0.11%
ε*10^4 ([7]; water): 2.76 M^−1cm^−1
λem ([7]; water): 840 nm
λmax ([7]; water): 730 nm
